Like-named read-outs stand apart in the source and are kept apart here.
Assay: Plasma pharmacokinetics and tissue distribution 2 h after oral cabazitaxel 10 mg/kg with vehicle or 25 mg/kg ritonavir in wild-type, Oatp1a/1b−/−, Oatp1a/1b/2b1−/−, OATP1B1- and OATP1B3-transgenic mice
Type: in vivo
Settings: for CLiver / Cbrain / Pbrain, brain accumulation per h / SIC (% of dose), small intestinal content / Kp at 2 h: 2 h; for enhancement of AUC0-2h by ritonavir: ritonavir 25 mg/kg compared to respective vehicle group; for AUC(0-t) / Kp at 2 h / Cmax / Tmax: male, FVB, mouse; for AUC(0-t) / Cmax / Tmax: plasma; for AUC(0-t): read-out: AUC0-2 h
Description: All animals were fasted 2 to 3 hours prior to the start of the experiment to minimize variation in absorption after oral administration. […] Subsequently, cardiac puncture was performed with a heparinized needle and syringe collecting a final blood sample. […] All samples were stored at −30° C. until analysis.
Differences were considered statistically significant when P<0.05. All data are presented as geometric mean±SD.

[1] = OATP1B1-transgenic mice, ritonavir 25 mg/kg oral, cabazitaxel 10 mg/kg oral
[2] = OATP1B1-transgenic mice, vehicle, cabazitaxel 10 mg/kg oral
[3] = OATP1B3-transgenic mice, ritonavir 25 mg/kg oral, cabazitaxel 10 mg/kg oral
[4] = OATP1B3-transgenic mice, vehicle, cabazitaxel 10 mg/kg oral
[5] = Oatp1a/1b/2b1−/− mice, ritonavir 25 mg/kg oral, cabazitaxel 10 mg/kg oral
[6] = Oatp1a/1b/2b1−/− mice, vehicle, cabazitaxel 10 mg/kg oral
[7] = Oatp1a/1b−/− mice, ritonavir 25 mg/kg oral, cabazitaxel 10 mg/kg oral
[8] = Oatp1a/1b−/− mice, vehicle, cabazitaxel 10 mg/kg oral
[9] = po, 10 mg/kg, OATP1B1-transgenic mice, ritonavir 25 mg/kg oral, cabazitaxel 10 mg/kg oral
[10] = po, 10 mg/kg, OATP1B1-transgenic mice, vehicle pretreatment, oral 10 mg/kg cabazitaxel
[11] = po, 10 mg/kg, OATP1B1-transgenic mice, vehicle, cabazitaxel 10 mg/kg oral

CLiver [1]: 22966 pmol/g
Cbrain [1]: 275 pmol/g
Pbrain, brain accumulation per h [1]: 0.031 h⁻¹
SIC (% of dose), small intestinal content [1]: 1.93 % of dose
CLiver [2]: 3150 pmol/g
Cbrain [2]: 59.0 pmol/g
Pbrain, brain accumulation per h [2]: 0.014 h⁻¹
SIC (% of dose), small intestinal content [2]: 1.43 % of dose
CLiver [3]: 21217 pmol/g
Cbrain [3]: 245 pmol/g
Pbrain, brain accumulation per h [3]: 0.032 h⁻¹
SIC (% of dose), small intestinal content [3]: 1.06 % of dose
CLiver [4]: 2777 pmol/g
Cbrain [4]: 55.8 pmol/g
Pbrain, brain accumulation per h [4]: 0.014 h⁻¹
SIC (% of dose), small intestinal content [4]: 1.00 % of dose
enhancement of AUC0-2h by ritonavir (Oatp1a/1b/2b1−/− mice): 2.4 fold
CLiver [5]: 21464 pmol/g
Cbrain [5]: 262 pmol/g
Pbrain, brain accumulation per h [5]: 0.029 h⁻¹
SIC (% of dose), small intestinal content [5]: 1.67 % of dose
CLiver [6]: 2979 pmol/g
Cbrain [6]: 49.4 pmol/g
Pbrain, brain accumulation per h [6]: 0.013 h⁻¹
SIC (% of dose), small intestinal content [6]: 2.22 % of dose
enhancement of AUC0-2h by ritonavir (Oatp1a/1b−/− mice): 3.0 fold
CLiver [7]: 20747 pmol/g
Cbrain [7]: 323 pmol/g
Pbrain, brain accumulation per h [7]: 0.035 h⁻¹
SIC (% of dose), small intestinal content [7]: 0.91 % of dose
CLiver [8]: 2758 pmol/g
Cbrain [8]: 45.2 pmol/g
Pbrain, brain accumulation per h [8]: 0.014 h⁻¹
SIC (% of dose), small intestinal content [8]: 0.32 % of dose
AUC(0-t) (OATP1B1-transgenic (Oatp1a/1b−/− background), po, 10 mg/kg, OATP1B1-transgenic mice, ritonavir 25 mg/kg oral, cabazitaxel 10 mg/kg oral): 7.91 µM·h
AUC(0-t) (OATP1B1-transgenic (Oatp1a/1b−/− background), po, 10 mg/kg, OATP1B1-transgenic mice, vehicle, cabazitaxel 10 mg/kg oral): 3.7 µM·h
AUC(0-t) (OATP1B3-transgenic (Oatp1a/1b−/− background), po, 10 mg/kg, OATP1B3-transgenic mice, ritonavir 25 mg/kg oral, cabazitaxel 10 mg/kg oral): 6.57 µM·h
AUC(0-t) (OATP1B3-transgenic (Oatp1a/1b−/− background), po, 10 mg/kg, OATP1B3-transgenic mice, vehicle, cabazitaxel 10 mg/kg oral): 3.51 µM·h
AUC(0-t) (Oatp1a/1b/2b1−/−, po, 10 mg/kg, Oatp1a/1b/2b1−/− mice, ritonavir 25 mg/kg oral, cabazitaxel 10 mg/kg oral): 6.8 µM·h
AUC(0-t) (Oatp1a/1b/2b1−/−, po, 10 mg/kg, Oatp1a/1b/2b1−/− mice, vehicle, cabazitaxel 10 mg/kg oral): 2.88 µM·h
AUC(0-t) (Oatp1a/1b−/−, po, 10 mg/kg, Oatp1a/1b−/− mice, ritonavir 25 mg/kg oral, cabazitaxel 10 mg/kg oral): 7.89 µM·h
AUC(0-t) (Oatp1a/1b−/−, po, 10 mg/kg, Oatp1a/1b−/− mice, vehicle, cabazitaxel 10 mg/kg oral): 2.62 µM·h
Kp at 2 h (brain/plasma, po, 10 mg/kg, OATP1B1-transgenic mice, vehicle, cabazitaxel 10 mg/kg oral, read-out: Brain-to-plasma ratio): 0.054
Kp at 2 h (brain/plasma, po, 10 mg/kg, OATP1B3-transgenic mice, vehicle, cabazitaxel 10 mg/kg oral, read-out: Brain-to-plasma ratio): 0.067
Kp at 2 h (brain/plasma, po, 10 mg/kg, Oatp1a/1b/2b1−/− mice, vehicle, cabazitaxel 10 mg/kg oral, read-out: Brain-to-plasma ratio): 0.064
Kp at 2 h (brain/plasma, po, 10 mg/kg, Oatp1a/1b−/− mice, vehicle, cabazitaxel 10 mg/kg oral, read-out: Brain-to-plasma ratio): 0.064
Kp at 2 h (brain/plasma, po, 10 mg/kg, wild-type mice, vehicle, cabazitaxel 10 mg/kg oral, read-out: Brain-to-plasma ratio): 0.069
Kp at 2 h (brain/plasma, po, OATP1B1-transgenic mice, ritonavir 25 mg/kg oral, cabazitaxel 10 mg/kg oral, read-out: Brain-to-plasma ratio): 0.045
Kp at 2 h (brain/plasma, po, OATP1B3-transgenic mice, ritonavir 25 mg/kg oral, cabazitaxel 10 mg/kg oral, read-out: Brain-to-plasma ratio): 0.046
Kp at 2 h (brain/plasma, po, Oatp1a/1b/2b1−/− mice, ritonavir 25 mg/kg oral, cabazitaxel 10 mg/kg oral, read-out: Brain-to-plasma ratio): 0.047
Kp at 2 h (brain/plasma, po, Oatp1a/1b−/− mice, ritonavir 25 mg/kg oral, cabazitaxel 10 mg/kg oral, read-out: Brain-to-plasma ratio): 0.055
Kp at 2 h (brain/plasma, po, wild-type mice, ritonavir 25 mg/kg oral, cabazitaxel 10 mg/kg oral, read-out: Brain-to-plasma ratio): 0.036
Kp at 2 h (liver, oral, 10 mg/kg, OATP1B1-transgenic mice, vehicle, cabazitaxel 10 mg/kg oral, read-out: Liver-to-plasma ratio): 3.1
Kp at 2 h (liver, oral, 10 mg/kg, OATP1B3-transgenic mice, vehicle, cabazitaxel 10 mg/kg oral, read-out: Liver-to-plasma ratio): 3.61
Kp at 2 h (liver, oral, 10 mg/kg, Oatp1a/1b/2b1−/− mice, vehicle, cabazitaxel 10 mg/kg oral, read-out: Liver-to-plasma ratio): 3.84
Kp at 2 h (liver, oral, 10 mg/kg, Oatp1a/1b−/− mice, vehicle, cabazitaxel 10 mg/kg oral, read-out: Liver-to-plasma ratio): 3.95
Kp at 2 h (liver, oral, 10 mg/kg, wild-type mice, vehicle, cabazitaxel 10 mg/kg oral, read-out: Liver-to-plasma ratio): 3.93
Kp at 2 h (liver, oral, OATP1B1-transgenic mice, ritonavir 25 mg/kg oral, cabazitaxel 10 mg/kg oral, read-out: Liver-to-plasma ratio): 3.84
Kp at 2 h (liver, oral, OATP1B3-transgenic mice, ritonavir 25 mg/kg oral, cabazitaxel 10 mg/kg oral, read-out: Liver-to-plasma ratio): 4.15
Kp at 2 h (liver, oral, Oatp1a/1b/2b1−/− mice, ritonavir 25 mg/kg oral, cabazitaxel 10 mg/kg oral, read-out: Liver-to-plasma ratio): 3.95
Kp at 2 h (liver, oral, Oatp1a/1b−/− mice, ritonavir 25 mg/kg oral, cabazitaxel 10 mg/kg oral, read-out: Liver-to-plasma ratio): 3.62
Kp at 2 h (liver, oral, wild-type mice, ritonavir 25 mg/kg oral, cabazitaxel 10 mg/kg oral, read-out: Liver-to-plasma ratio): 3.32
Cmax [9]: 4670 nM
Tmax [9]: 65 min
Cmax [10]: 2730 ± 855 nM
Tmax [10]: 27.5 min
AUC(0-t) (po, 10 mg/kg, OATP1B1-transgenic mice, vehicle pretreatment, oral 10 mg/kg cabazitaxel, 0-2 h): 3.7 ± 1.23 µM·h
Cmax [11]: 2730 nM
Tmax [11]: 27.5 min
Compound: CO[C@H]1C(=O)[C@]2(C)[C@@H](OC)C[C@H]3OC[C@@]3(OC(C)=O)[C@H]2[C@H](OC(=O)c2ccccc2)[C@]2(O)C[C@H](OC(=O)[C@H](O)[C@@H](NC(=O)OC(C)(C)C)c3ccccc3)C(C)=C1C2(C)C [cabazitaxel]
